Results: patent US20120202231A1, “SYNERGISTIC BIOMARKER ASSAY OF NEUROLOGICAL CONDITION USING S-100B” (priority 2009, published 2012)

Test system: Female Sprague-Dawley rats
Conditions: for GFAP level relative to control animals / S-100b level relative to control animals / UCH-L1 level relative to control animals: rats, biofluids, 30, 60, 90, 120 min after dosing
Procedure: Acute oral In vivo drug candidate screening for neurotoxicity. […] A total of four to eight animals of are used for each dose level investigated.
At 30, 60, 90, and 120 minutes following dosing, the rats are sacrificed by decapitation and blood is obtained by cardiac puncture. The levels of biofluids S-100β, UCH-L1, and GFAP are analyzed by sandwich ELISA or western blot by using biomarker specific antibodies.

Row | Compound | GFAP level relative to control animals | S-100b level relative to control animals | UCH-L1 level relative to control animals | CSF concentration of GFAP relative to control animals (rat, in vivo) | CSF concentration of UCH-L1 relative to control animals (rat, in vivo)
1 | C=C(C)[C@H]1CN[C@H](C(=O)O)[C@H]1CC(=O)O [kainic acid] | increase | increase | increase | – | –
2 | CN[C@@H](C)Cc1ccccc1 [methamphetamine] | – | Modest increase | – | increase | increase
3 | CN1CC=C(c2ccccc2)CC1 [MPTP] | increase | increase | increase | – | –
4 | N.N.[Cl][Pt][Cl] [Cisplatin, cisplatin] | increase | increase | increase | – | –
